In patent publication US11197863B2, “Inhibitors of polo-like kinase 4 (PLK4) for treating pediatric embryonal tumors” (ANN AND ROBERT H. LURIE CHILDREN'S HOSPITAL OF CHICAGO, priority 2017, dated 2021):
pIC50: −log10 of the molar value. Read-outs that look alike come from different tables or passages of the source.

Tests used:
[1] = tested on: BT-16 cells; assay: Combination therapy viability assay; assay type: cell-based; conditions: Homo sapiens, BT-16, 72 h, read-out: IC50 of compound 2
[2] = tested on: MON cells; assay: Combination therapy viability assay; assay type: cell-based; conditions: Homo sapiens, 72 h, read-out: IC50 of compound 2
[3] = tested on: DAOY cells; assay: Combination therapy viability assay; conditions: Homo sapiens, 72 h
[4] = children, single agent; cited from earlier work
[5] = tested on: rhabdoid mouse xenograft models; conditions: in vivo; cited from earlier work
[6] = tested on: rhabdoid tumor cell lines; conditions: inhibition of ERBB2; cited from earlier work
[7] = combined with CFI-400945 (5 nM)
[8] = combined with CFI-400945 (10 nM)
[9] = read-out: IC50 of compound 2, DAOY, combined with CFI-400945 (5 nM)
[10] = read-out: IC50 of compound 2, DAOY, combined with CFI-400945 (10 nM)

| pIC50 [1, 7] | pIC50 [1, 8] | Compound | pIC50 [2, 7] | pIC50 [2, 8] | pIC50 [3, 9] | pIC50 [3, 10] | clinical activity [4] | response rates [5] | cell migration and apoptosis [6] |
| --- | --- | --- | --- | --- | --- | --- | --- | --- | --- |
| 6.25 | 6.24 | COc1cccc2c1C(=O)c1c(O)c3c(c(O)c1C2=O)C[C@@](O)(C(=O)CO)C[C@@H]3O[C@H]1C[C@H](N)[C@H](O)[C@H](C)O1 [Doxorubicin, doxorubicin] | 7.13 | 7.24 | 6.77 | 6.70 |  |  |  |
| 6.23 | 8.22 | COc1cc([C@@H]2c3cc4c(cc3[C@@H](O[C@@H]3O[C@@H]5CO[C@@H](C)O[C@H]5[C@H](O)[C@H]3O)[C@H]3COC(=O)[C@H]23)OCO4)cc(OC)c1O [Etoposide, etoposide] | 6.53 | 6.58 | 6.31 | 6.10 |  |  |  |
|  |  | COc1cc(Nc2ncc3c(n2)-c2ccc(Cl)cc2C(c2c(F)cccc2OC)=NC3)ccc1C(=O)O [alisertib] |  |  |  |  | active as a single agent | high response rates |  |
|  |  | CS(=O)(=O)CCNCc1ccc(-c2ccc3ncnc(Nc4ccc(OCc5cccc(F)c5)c(Cl)c4)c3c2)o1 [lapatinib] |  |  |  |  |  |  | significant impairment of cell migration and initiation of apoptosis |
